Test results published in ChEMBL document CHEMBL1938382, “Fragment-based discovery of indole inhibitors of matrix metalloproteinase-13” (J Med Chem, 2011).
Values after ≈ are worked out from the molar mass of the structure shown.

How the values were obtained:
[1] = target: T1, Collagenase 3 (Homo sapiens, UniProt P45452)
Description: Inhibition of human MMP13 expressed in Escherichia coli after 30 mins by fluorimetry

[2] = target: Matrix metalloproteinase-14 (Homo sapiens, UniProt P50281); experiment: Inhibition of human recombinant MMP14 after 60 mins by fluorimetry
[3] = target: 72 kDa type IV collagenase (Homo sapiens, UniProt P08253); experiment: Inhibition of human recombinant MMP2 after 30 mins by fluorimetry
72 kDa type IV collagenase, sequence (P08253 whole entry): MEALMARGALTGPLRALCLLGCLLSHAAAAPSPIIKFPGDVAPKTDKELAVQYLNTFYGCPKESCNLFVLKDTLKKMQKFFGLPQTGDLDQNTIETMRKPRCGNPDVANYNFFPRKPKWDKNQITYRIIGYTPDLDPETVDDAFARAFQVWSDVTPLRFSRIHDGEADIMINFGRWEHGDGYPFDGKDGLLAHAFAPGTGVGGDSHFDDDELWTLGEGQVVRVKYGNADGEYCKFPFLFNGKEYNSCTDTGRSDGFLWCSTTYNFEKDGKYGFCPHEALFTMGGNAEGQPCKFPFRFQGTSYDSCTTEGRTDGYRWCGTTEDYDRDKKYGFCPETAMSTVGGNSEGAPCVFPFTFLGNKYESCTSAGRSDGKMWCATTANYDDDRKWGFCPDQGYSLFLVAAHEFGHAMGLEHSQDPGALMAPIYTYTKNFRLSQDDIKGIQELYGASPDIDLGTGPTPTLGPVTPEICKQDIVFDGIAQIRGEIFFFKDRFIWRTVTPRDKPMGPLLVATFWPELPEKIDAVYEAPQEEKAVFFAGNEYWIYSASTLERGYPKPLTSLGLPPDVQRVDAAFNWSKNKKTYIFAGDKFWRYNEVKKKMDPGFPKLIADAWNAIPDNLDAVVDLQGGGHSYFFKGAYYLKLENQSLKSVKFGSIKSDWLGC

[4] = Metabolic stability in human liver microsomes after 5 mins relative to human hepatic blood flow; type: ADME, Microsome; conditions: read-out: Stability
[5] = target: T1, Collagenase 3; experiment: Inhibition of MMP13 after 30 mins by fluorimetry in the presence of 1.25% human serum albumin
[6] = test system: Liver microsomes; experiment: Drug metabolism in Sprague-Dawley rat liver microsomes assessed as ester hydrolysis product formation; type: ADME, Microsome
[7] = target: Cytochrome P450 3A4 (Homo sapiens, UniProt P08684); experiment: Inhibition of human recombinant CYP3A4 using 7-benzyloxy-4-trifluoromethylcoumarin as substrate after 30 mins by fluorimetry; type: ADME
Cytochrome P450 3A4, sequence (P08684 whole entry): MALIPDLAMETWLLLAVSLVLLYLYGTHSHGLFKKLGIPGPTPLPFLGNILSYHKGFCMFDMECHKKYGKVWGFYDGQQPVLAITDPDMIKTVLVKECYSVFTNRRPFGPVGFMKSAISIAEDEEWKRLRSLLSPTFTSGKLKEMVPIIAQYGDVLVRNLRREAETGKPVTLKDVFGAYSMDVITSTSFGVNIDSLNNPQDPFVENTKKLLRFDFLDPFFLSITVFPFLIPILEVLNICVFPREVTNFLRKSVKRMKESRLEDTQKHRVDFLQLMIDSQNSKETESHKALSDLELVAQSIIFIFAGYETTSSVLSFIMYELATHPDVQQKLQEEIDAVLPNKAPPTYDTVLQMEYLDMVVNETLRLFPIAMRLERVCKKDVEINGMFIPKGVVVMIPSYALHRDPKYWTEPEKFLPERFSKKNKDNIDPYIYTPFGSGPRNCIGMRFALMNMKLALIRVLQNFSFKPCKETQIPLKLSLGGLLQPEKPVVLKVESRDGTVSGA

[8] = Lipophilicity, log P of the compound; type: physicochemical; conditions: octanol/water
[9] = target: Stromelysin-2 (Homo sapiens, UniProt P09238); experiment: Inhibition of human recombinant MMP10 after 30 mins by fluorimetry
Stromelysin-2, sequence (P09238 whole entry): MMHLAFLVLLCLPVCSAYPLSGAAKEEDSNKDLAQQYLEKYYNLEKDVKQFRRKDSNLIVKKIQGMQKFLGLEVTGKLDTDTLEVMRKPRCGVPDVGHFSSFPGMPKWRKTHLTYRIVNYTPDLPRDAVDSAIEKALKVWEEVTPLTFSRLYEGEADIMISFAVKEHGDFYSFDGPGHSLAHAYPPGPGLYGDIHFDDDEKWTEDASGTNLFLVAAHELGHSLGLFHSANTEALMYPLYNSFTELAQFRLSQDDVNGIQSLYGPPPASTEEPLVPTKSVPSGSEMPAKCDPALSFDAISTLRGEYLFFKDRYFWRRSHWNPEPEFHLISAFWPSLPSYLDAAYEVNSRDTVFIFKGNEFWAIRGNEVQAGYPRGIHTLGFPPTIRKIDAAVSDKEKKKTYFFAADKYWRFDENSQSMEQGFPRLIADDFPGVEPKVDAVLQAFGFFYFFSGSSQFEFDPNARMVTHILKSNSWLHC

[10] = target: T1, Collagenase 3; experiment: Inhibition of human MMP13-mediated degradation of bovine nasal cartilage after 2 hrs by ELISA in the presence of 10% human serum
[11] = test system: Rattus norvegicus; experiment: Volume of distribution at steady state in Sprague-Dawley rat at 1 mg/kg, iv and 10 mg/kg, po; type: ADME, organism-based; conditions: in vivo
[12] = target: Neutrophil collagenase (Homo sapiens, UniProt P22894); experiment: Inhibition of human recombinant MMP8 after 30 mins by fluorimetry
Neutrophil collagenase, sequence (P22894 whole entry): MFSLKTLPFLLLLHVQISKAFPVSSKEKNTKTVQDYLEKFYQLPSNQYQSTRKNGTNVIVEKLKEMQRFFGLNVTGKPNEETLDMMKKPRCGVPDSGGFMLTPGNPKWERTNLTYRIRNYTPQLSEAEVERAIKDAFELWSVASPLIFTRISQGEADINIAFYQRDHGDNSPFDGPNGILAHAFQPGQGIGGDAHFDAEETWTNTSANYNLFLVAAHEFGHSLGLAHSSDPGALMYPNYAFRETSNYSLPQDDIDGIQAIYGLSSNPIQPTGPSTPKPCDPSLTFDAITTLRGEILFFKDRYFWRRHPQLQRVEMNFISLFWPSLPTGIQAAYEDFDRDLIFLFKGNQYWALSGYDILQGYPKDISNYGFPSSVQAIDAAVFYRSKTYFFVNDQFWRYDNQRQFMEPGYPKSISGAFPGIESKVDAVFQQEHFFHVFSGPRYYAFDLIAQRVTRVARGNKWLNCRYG

[13] = target: Matrix metalloproteinase-9 (Homo sapiens, UniProt P14780); experiment: Inhibition of human recombinant MMP9 after 30 mins by fluorimetry
Matrix metalloproteinase-9, sequence (P14780 whole entry): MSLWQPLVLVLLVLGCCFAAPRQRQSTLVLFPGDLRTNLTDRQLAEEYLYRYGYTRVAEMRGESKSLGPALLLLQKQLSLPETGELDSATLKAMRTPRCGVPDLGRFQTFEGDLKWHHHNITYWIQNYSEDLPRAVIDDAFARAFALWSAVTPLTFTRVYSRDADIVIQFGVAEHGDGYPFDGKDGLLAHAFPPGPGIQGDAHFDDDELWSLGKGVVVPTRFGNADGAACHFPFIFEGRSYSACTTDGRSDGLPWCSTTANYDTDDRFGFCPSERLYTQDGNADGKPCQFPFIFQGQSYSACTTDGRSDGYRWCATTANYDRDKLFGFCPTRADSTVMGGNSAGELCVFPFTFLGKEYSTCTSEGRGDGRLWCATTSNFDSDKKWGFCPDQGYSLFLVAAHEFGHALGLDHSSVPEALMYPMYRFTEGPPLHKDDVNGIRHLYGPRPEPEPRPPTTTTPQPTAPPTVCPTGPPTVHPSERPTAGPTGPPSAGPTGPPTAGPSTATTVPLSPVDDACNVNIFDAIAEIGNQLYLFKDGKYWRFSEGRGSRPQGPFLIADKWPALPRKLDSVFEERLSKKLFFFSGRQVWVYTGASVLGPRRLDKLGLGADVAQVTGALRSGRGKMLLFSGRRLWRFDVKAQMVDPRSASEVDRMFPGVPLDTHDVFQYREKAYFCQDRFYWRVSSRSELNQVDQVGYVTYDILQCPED

[14] = target: Stromelysin-1 (Homo sapiens, UniProt P08254); experiment: Inhibition of human recombinant MMP3 after 30 mins by fluorimetry
Stromelysin-1, sequence (P08254 whole entry): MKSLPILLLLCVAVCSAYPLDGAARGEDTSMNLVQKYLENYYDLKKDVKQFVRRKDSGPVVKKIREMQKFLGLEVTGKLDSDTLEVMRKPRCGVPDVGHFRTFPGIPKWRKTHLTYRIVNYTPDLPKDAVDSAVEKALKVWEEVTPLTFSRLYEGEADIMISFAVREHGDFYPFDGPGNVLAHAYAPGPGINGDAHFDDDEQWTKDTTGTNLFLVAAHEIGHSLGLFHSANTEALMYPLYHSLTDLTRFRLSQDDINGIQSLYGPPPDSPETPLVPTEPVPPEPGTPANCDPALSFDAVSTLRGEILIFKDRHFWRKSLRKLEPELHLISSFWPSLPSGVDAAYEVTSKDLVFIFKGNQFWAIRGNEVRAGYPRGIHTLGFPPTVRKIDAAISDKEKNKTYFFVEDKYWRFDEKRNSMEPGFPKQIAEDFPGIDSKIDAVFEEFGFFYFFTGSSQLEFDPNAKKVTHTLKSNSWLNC

[15] = Half life in Sprague-Dawley rat at 1 mg/kg, iv and 10 mg/kg, po; type: ADME, organism-based; conditions: in vivo
[16] = target: T1, Collagenase 3; experiment: Inhibition of […]-activated MMP13-mediated degradation of FITC-labeled type2 collagen after 1.5 hrs by fluorimetry
[17] = test system: Rattus norvegicus; experiment: AUC in Sprague-Dawley rat at 1 mg/kg, iv; type: ADME, organism-based, Plasma; parameters: dose 1 mg/kg, route intravenous; conditions: in vivo
[18] = target: Cytochrome P450 2C9 (Homo sapiens, UniProt P11712); experiment: Inhibition of human recombinant CYP2C9 using 7-methoxy-4-trifluoromethylcoumarin as substrate after 45 mins by fluorimetry; type: ADME
Cytochrome P450 2C9, sequence (P11712 whole entry): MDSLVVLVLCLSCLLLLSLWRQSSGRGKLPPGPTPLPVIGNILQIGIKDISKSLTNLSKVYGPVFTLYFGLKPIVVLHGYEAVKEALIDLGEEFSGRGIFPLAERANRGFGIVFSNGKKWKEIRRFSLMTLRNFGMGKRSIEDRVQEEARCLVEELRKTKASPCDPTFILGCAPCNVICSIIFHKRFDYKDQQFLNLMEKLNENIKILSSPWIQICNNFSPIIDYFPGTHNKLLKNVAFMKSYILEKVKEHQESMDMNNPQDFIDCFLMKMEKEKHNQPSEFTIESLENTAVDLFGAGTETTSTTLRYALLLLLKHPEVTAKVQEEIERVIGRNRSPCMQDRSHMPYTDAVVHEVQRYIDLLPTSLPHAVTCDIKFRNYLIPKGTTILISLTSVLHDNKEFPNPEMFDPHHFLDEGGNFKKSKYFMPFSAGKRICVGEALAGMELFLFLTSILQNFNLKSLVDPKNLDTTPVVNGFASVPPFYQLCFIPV

[19] = Aqueous solubility of the compound at pH 7.4 by UV spectrophotometry; type: physicochemical; conditions: buffer
[20] = target: T2, Matrilysin (Homo sapiens, UniProt P09237); experiment: Inhibition of human recombinant MMP7 after 30 mins by fluorimetry
T2 sequence (P09237 whole entry): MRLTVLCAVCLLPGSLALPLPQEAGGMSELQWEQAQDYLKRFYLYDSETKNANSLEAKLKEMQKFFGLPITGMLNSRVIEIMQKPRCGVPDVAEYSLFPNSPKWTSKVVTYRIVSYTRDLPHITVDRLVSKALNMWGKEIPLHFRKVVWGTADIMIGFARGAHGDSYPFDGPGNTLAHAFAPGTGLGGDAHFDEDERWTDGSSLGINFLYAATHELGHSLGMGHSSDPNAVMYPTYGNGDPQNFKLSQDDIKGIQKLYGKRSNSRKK

[21] = Clearance in Sprague-Dawley rat at 1 mg/kg, iv and 10 mg/kg, po; type: ADME, organism-based; conditions: in vivo
[22] = target: Macrophage metalloelastase (Homo sapiens, UniProt P39900); experiment: Inhibition of human recombinant MMP12 after 30 mins by fluorimetry
Macrophage metalloelastase, sequence (P39900 whole entry): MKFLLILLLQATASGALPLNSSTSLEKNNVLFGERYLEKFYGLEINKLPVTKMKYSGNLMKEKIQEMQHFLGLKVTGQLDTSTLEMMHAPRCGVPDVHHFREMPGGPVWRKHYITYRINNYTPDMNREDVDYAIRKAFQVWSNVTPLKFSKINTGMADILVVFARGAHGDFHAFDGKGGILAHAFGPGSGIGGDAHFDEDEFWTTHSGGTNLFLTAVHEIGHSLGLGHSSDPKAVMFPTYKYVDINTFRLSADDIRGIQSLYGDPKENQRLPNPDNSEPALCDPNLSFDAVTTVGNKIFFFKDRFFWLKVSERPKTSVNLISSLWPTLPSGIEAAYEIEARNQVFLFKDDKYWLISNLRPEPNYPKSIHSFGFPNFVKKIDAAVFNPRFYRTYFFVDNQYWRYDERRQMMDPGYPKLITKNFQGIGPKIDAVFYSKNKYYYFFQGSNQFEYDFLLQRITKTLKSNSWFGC

[23] = Cmax in Sprague-Dawley rat at 1 mg/kg, iv and 10 mg/kg, po; type: ADME, organism-based; conditions: in vivo
[24] = target: T3, Interstitial collagenase (Homo sapiens, UniProt P03956); experiment: Inhibition of human recombinant MMP1 after 30 mins by fluorimetry
T3 sequence (P03956 whole entry): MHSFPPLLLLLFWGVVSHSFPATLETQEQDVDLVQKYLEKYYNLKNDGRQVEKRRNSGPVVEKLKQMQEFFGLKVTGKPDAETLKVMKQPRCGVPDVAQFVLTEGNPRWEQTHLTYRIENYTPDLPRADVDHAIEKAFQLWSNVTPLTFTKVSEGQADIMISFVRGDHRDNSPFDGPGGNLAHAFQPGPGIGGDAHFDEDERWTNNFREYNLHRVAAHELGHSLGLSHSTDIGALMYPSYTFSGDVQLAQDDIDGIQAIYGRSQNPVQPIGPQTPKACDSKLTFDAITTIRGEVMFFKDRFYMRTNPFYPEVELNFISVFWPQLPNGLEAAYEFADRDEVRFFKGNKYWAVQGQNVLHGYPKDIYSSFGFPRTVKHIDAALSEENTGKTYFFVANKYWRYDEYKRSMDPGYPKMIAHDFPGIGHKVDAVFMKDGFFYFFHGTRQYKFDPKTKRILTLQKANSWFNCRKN

[25] = test system: Rattus norvegicus; experiment: AUC in Sprague-Dawley rat at 10 mg/kg, po; type: ADME, organism-based, Plasma; parameters: dose 10 mg/kg, route oral; conditions: in vivo
[26] = Oral bioavailability in Sprague-Dawley rat at 10 mg/kg; type: ADME, organism-based; conditions: in vivo

Structure (SMILES) | IC50 [1] | IC50 [2] | IC50 [3] | IC50 [5] | other results
CCOC(=O)c1cc2cc(-c3ccncc3)ccc2[nH]1 | 82 µM | 225 µM | 310 µM |  | 
CCOC(=O)c1cc2cc(-c3ccccc3)ccc2[nH]1 | > 500 µM | > 500 µM | > 500 µM |  | 
Cn1nc(C(=O)NCc2ccc(C(=O)O)cc2)cc1-c1ccc2[nH]c(C(=O)O)cc2c1 | 25 µM |  |  | 56 µM | Drug metabolism [6]: Active
CCOC(=O)c1cc2cc(-c3cc(C(=O)NCc4ccc(CC(=O)O)cc4)nn3C)ccc2[nH]1 |  | > 22 µM | > 22 µM | 0.014 µM | 
CCOC(=O)c1cc2cc(-c3cc(C(=O)NCc4ccncc4)ncc3C)ccc2[nH]1 | 0.15 µM | > 22 µM | > 20 µM | 0.64 µM | 
CCCC(=O)c1cc2cc(C(N)=O)ccc2[nH]1 | > 500 µM | > 500 µM | > 500 µM |  | 
CCOC(=O)c1cc2cc(-c3cc(C(=O)NCc4ccncc4)nn3C)ccc2[nH]1 | 0.09 µM | > 500 µM | > 500 µM | 0.36 µM | 
CCOCc1cc2cc(-c3cc(C(=O)NCc4ccc(C(=O)O)cc4)nn3C)ccc2[nH]1 | 0.25 µM |  |  | 1.9 µM | hepatic extraction ratio at 5 min [4]: 0.78
CCOC(=O)c1cc2cc(-c3cc(C(=O)NCc4ccc(=O)[nH]c4)nn3C)ccc2[nH]1 | 0.12 µM | 11 µM | > 24 µM | 0.28 µM | 
CCOC(=O)c1cc2cc(NS(C)(=O)=O)ccc2[nH]1 | 97 µM | > 500 µM | 210 µM |  | 
CCOC(=O)c1cc2cc(-c3ccccn3)ccc2[nH]1 | > 500 µM | > 500 µM | > 500 µM |  | 
CCOC(=O)c1cc2cc(-c3cccnc3)ccc2[nH]1 | 15 µM | 51 µM | 30 µM |  | 
CCOC(=O)c1cc2cc(-c3cc(C(=O)OC)nn3C)ccc2[nH]1 | 2.4 µM | 41 µM | 83 µM |  | 
CCOC(=O)c1cc2cc(-c3cc(C(=O)NCc4ccc(C(=O)O)cc4)nn3C)ccc2[nH]1 [BI 4394] | 0.001 µM |  |  | 0.004 µM | IC50 [7]: > 30 µM; logP [8]: 1.9; IC50 [9]: 16 µM; IC50 [10]: 0.031 µM; Vdss [11]: 0.26 L/kg; IC50 [12]: > 22 µM; IC50 [13]: 8.9 µM; IC50 [14]: > 22 µM; half-life [15]: 28.2 min; IC50 [16]: 0.011 µM; AUC [17]: 1109 nM.hr/ml; IC50 [18]: > 30 µM; solubility [19]: 60 µg/mL (≈ 134 µM); IC50 [20]: > 22 µM; clearance [21]: 34 mL/min/kg; IC50 [22]: > 22 µM; Cmax [23]: 1660 nM; IC50 [24]: > 22 µM; AUC [25]: 4328 nM.hr/ml; bioavailability [26]: 39%

Continued, in another order:

IC50 [1] | IC50 [2] | IC50 [3] | IC50 [5] | Structure (SMILES) | other results
31 µM | > 500 µM | > 500 µM |  | CCOC(=O)c1cc2cc(NC(C)=O)ccc2[nH]1 | 
9.6 µM | > 500 µM | > 500 µM |  | CCOC(=O)c1cc2cc(-c3ccncc3C)ccc2[nH]1 | 
220 µM | > 500 µM | > 500 µM |  | CC(=O)Nc1ccc2[nH]c(C3=NCCO3)cc2c1 | 
> 26 µM |  |  |  | Cn1nc(C(=O)NCc2ccc(C(=O)O)cc2)cc1-c1ccc2[nH]ccc2c1 [BI 4395] | hepatic extraction ratio at 5 min [4]: 0.25
> 500 µM | > 500 µM | > 500 µM |  | CCNC(=O)c1cc2cc(C(N)=O)ccc2[nH]1 | 
 | > 500 µM | 60 µM |  | CCOC(=O)c1cc2cc(C(N)=O)ccc2[nH]1 | 
2.5 µM | 15 µM | 24 µM |  | CCOC(=O)c1cc2cc(-c3cncn3C)ccc2[nH]1 | 
